Test results: patent publication US20260184712A1, “Heterocyclic Compounds as ENT Inhibitors and Compounds for Use in the Treatment of Cancers” (iTeos Belgium SA, priority 2022, published 2026)
pIC50: −log10 of the molar value.

target: T1, human ENT1 (Homo sapiens, UniProt Q99808); test: ENT1 binding assay (competition with Sahenta-DY647 on JAR cells); details: competition with SAHENTA-DY647 binding; IC50 categorized; read-out: Binding Assay IC50
T1 construct: JAR cells expressing ENT1 were purchased from ATCC; host or cells: JAR cells
T1 sequence (Q99808 1-456): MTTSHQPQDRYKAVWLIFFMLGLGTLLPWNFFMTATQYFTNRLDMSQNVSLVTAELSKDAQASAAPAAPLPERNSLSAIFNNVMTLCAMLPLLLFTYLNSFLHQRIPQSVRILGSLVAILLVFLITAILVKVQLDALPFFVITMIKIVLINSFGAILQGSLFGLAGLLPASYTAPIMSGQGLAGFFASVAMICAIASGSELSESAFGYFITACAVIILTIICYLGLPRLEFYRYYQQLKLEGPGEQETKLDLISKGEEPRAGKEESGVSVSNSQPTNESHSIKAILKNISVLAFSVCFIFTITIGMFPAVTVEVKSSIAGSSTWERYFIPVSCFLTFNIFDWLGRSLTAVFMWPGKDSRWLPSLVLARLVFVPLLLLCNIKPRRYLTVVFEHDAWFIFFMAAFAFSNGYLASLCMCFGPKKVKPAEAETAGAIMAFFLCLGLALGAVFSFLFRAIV
Procedure, shortened: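 Fluorescent-tracer displacement: compound incubated with JAR cells 30 min, 4 °C, before Sahenta-DY647 (100 nM) for another 30 min, 4 °C, in Hepes-buffered HBSS with 0.1% BSA. Bound tracer read at 670 nm after washes; IC50 from four-parameter fit, reported as mean of pIC50 values.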

Row | Compound | pIC50
1 | C[C@H]1O[C@@H](n2cnc3c(SCc4ccc5ccccc5n4)ncnc32)[C@H](O)[C@@H]1O [Compound 342] | < 6.30
2 | C[C@H]1O[C@@H](n2cnc3c(OCCc4ccc(OCF)cc4)ncnc32)[C@H](O)[C@@H]1O [Compound 343] | < 6.30
3 | C[C@H]1O[C@@H](n2cnc3c(OCCc4ccc(S(C)(=O)=O)cc4)ncnc32)[C@H](O)[C@@H]1O [Compound 344] | < 6.30
4 | Cc1c(N[C@@H]2O[C@H](C)[C@@H](O)[C@H]2O)ncnc1OCCc1ccc([N+](=O)[O-])cc1 [Compound 345] | < 6.30
5 | COc1ccc(COc2ncnc3c2ncn3[C@@H]2O[C@H](C)[C@@H](O)[C@H]2O)cc1OC1CCCC1 [Compound 346] | < 6.30
6 | C[C@H]1O[C@@H](n2cnc3c(OCCc4cnc(C#N)nc4)ncnc32)[C@H](O)[C@@H]1O [Compound 347] | < 6.30
7 | Cc1cc(CSc2ncnc3c2ncn3[C@@H]2O[C@H](C)[C@@H](O)[C@H]2O)no1 [Compound 348] | < 6.30
8 | C[C@H]1O[C@@H](n2cnc3c(OCCc4ccc(OC(F)(F)F)nc4)ncnc32)[C@H](O)[C@@H]1O [Compound 349] | < 6.30
9 | CCOc1ccc(CNC(=O)c2ncnc3c2ncn3[C@@H]2O[C@H](C)[C@@H](O)[C@H]2O)cc1 [Compound 350] | < 6.30
10 | C[C@H]1O[C@@H](n2cnc3c(C(=O)NCc4ccc5c(ccn5C)c4)ncnc32)[C@H](O)[C@@H]1O [Compound 351] | < 6.30
11 | C[C@H]1O[C@@H](n2cnc3c(NCc4cccc(-n5cccn5)c4)ncnc32)[C@H](O)[C@@H]1O [Compound 352] | < 6.30
12 | C[C@H]1O[C@@H](n2cnc3c(C(=O)NCc4ccc(Cl)cc4)ncnc32)[C@H](O)[C@@H]1O [Compound 353] | < 6.30
13 | C[C@H]1O[C@@H](n2c(N)nc3c(OCc4ccccc4)ncnc32)[C@H](O)[C@@H]1O [Compound 355] | < 6.30
14 | C[C@H]1O[C@@H](n2cnc3c(OCCc4cnc(OCF)nc4)ncnc32)[C@H](O)[C@@H]1O [Compound 356] | < 6.30
15 | C[C@H]1O[C@@H](n2cnc3c(NCc4ccccc4C#N)ncnc32)[C@H](O)[C@@H]1O [Compound 357] | < 6.30
16 | C[C@H]1O[C@@H](n2cnc3c(OCc4ccccc4-n4cccn4)ncnc32)[C@H](O)[C@@H]1O [Compound 358] | < 6.30
17 | C[C@H]1O[C@@H](n2cnc3c(SCc4cc(-c5ccco5)on4)ncnc32)[C@H](O)[C@@H]1O [Compound 359] | < 6.30
18 | C[C@H]1O[C@@H](n2cnc3c(C(=O)N4CCc5ccc([N+](=O)[O-])cc5C4)ncnc32)[C@H](O)[C@@H]1O [Compound 360] | < 6.30
19 | C[C@H]1O[C@@H](n2cnc3c(C(=O)NCc4ccc(C#N)cc4)ncnc32)[C@H](O)[C@@H]1O [Compound 361] | < 6.30
20 | C[C@H]1O[C@@H](n2cnc3c(OCc4ncc(F)cc4F)ncnc32)[C@H](O)[C@@H]1O [Compound 362] | < 6.30
21 | C[C@H]1O[C@@H](n2cnc3c(OCc4ccc5c(c4)OCCO5)ncnc32)[C@H](O)[C@@H]1O [Compound 363] | < 6.30

Row | Compound | pIC50
22 | C[C@H]1O[C@@H](n2cnc3c(OCc4ccc(-c5ccncc5)cc4)ncnc32)[C@H](O)[C@@H]1O [Compound 364] | < 6.30
23 | CC(C)Oc1cccc(CSc2ncnc3c2ncn3[C@@H]2O[C@H](C)[C@@H](O)[C@H]2O)c1 [Compound 365] | < 6.30
24 | C[C@H]1O[C@@H](n2cnc3c(SCc4ccc(S(=O)(=O)N(C)C)cc4)ncnc32)[C@H](O)[C@@H]1O [Compound 366] | < 6.30
25 | Cc1nc(=O)c2cc(COc3ncnc4c3ncn4[C@@H]3O[C@H](C)[C@@H](O)[C@H]3O)ccc2[nH]1 [Compound 367] | < 6.30
26 | C[C@H]1O[C@@H](n2cnc3c(-c4cn(-c5ccc([N+](=O)[O-])cc5)nn4)ncnc32)[C@H](O)[C@@H]1O [Compound 368] | < 6.30
27 | C[C@H]1O[C@@H](n2cnc3c(C(=O)NCc4ccc(C#N)c(F)c4)ncnc32)[C@H](O)[C@@H]1O [Compound 369] | < 6.30
28 | C[C@H]1O[C@@H](n2cnc3c(NCc4ccc(C(=O)N(C)C)cc4)ncnc32)[C@H](O)[C@@H]1O [Compound 370] | < 6.30
29 | C[C@H]1O[C@@H](n2cnc3c(CO[C@H]4CC[C@H](C(F)(F)F)CC4)ncnc32)[C@H](O)[C@@H]1O [Compound 371] | < 6.30
30 | CNc1ccccc1COc1ncnc2c1ncn2[C@@H]1O[C@H](C)[C@@H](O)[C@H]1O [Compound 372] | < 6.30
31 | C[C@H]1O[C@@H](n2cnc3c(OCc4cccc(C(N)=O)c4)ncnc32)[C@H](O)[C@@H]1O [Compound 373] | < 6.30
32 | C[C@H]1O[C@@H](n2cnc3c(NCc4ccccc4C(N)=O)ncnc32)[C@H](O)[C@@H]1O [Compound 374] | < 6.30
33 | C[C@H]1O[C@@H](n2cnc3c(OCc4ccccc4S(C)(=O)=O)ncnc32)[C@H](O)[C@@H]1O [Compound 375] | < 6.30
34 | C[C@H]1O[C@@H](n2cnc3c(NCc4ccc5ncccc5c4)ncnc32)[C@H](O)[C@@H]1O [Compound 376] | < 6.30
35 | C[C@H]1O[C@@H](n2cnc3c(OCc4ccc(N5CCCC5)cc4)ncnc32)[C@H](O)[C@@H]1O [Compound 377] | < 6.30
36 | C[C@H]1O[C@@H](n2cnc3c(NCc4cc(C(F)(F)F)ccc4F)ncnc32)[C@H](O)[C@@H]1O [Compound 378] | < 6.30
37 | C[C@H]1O[C@@H](n2cnc3c(NCc4cccc(C(=O)N(C)C)c4)ncnc32)[C@H](O)[C@@H]1O [Compound 379] | < 6.30
38 | C[C@H]1O[C@@H](n2cnc3c(NCc4cccc(-c5ncco5)c4)ncnc32)[C@H](O)[C@@H]1O [Compound 380] | < 6.30
39 | Cc1nccn1-c1ccc(COc2ncnc3c2ncn3[C@@H]2O[C@H](C)[C@@H](O)[C@H]2O)cc1 [Compound 381] | < 6.30
40 | COc1cc(COc2ncnc3c2ncn3[C@@H]2O[C@H](C)[C@@H](O)[C@H]2O)cc(OC)c1OC [Compound 382] | < 6.30
41 | C[C@H]1O[C@@H](n2cnc3c(OCc4ccc(-c5ccn(C)n5)cc4)ncnc32)[C@H](O)[C@@H]1O [Compound 383] | < 6.30
42 | C[C@H]1O[C@@H](n2cnc3c(NCc4ccc(-c5ccccn5)cc4)ncnc32)[C@H](O)[C@@H]1O [Compound 384] | < 6.30

Row | Compound | pIC50
43 | C[C@H]1O[C@@H](n2cnc3c(NCc4ccc(N5CCOCC5)cc4)ncnc32)[C@H](O)[C@@H]1O [Compound 385] | < 6.30
44 | CC(C)NC(=O)c1ccc(CNc2ncnc3c2ncn3[C@@H]2O[C@H](C)[C@@H](O)[C@H]2O)cc1 [Compound 386] | < 6.30
45 | C[C@H]1O[C@@H](n2cnc3c(NCc4ccc(N5CCCC5=O)cc4)ncnc32)[C@H](O)[C@@H]1O [Compound 387] | < 6.30
46 | C[C@H]1O[C@@H](n2cnc3c(NCc4ccc(OCCN(C)C)cc4)ncnc32)[C@H](O)[C@@H]1O [Compound 388] | < 6.30
47 | C[C@H]1O[C@@H](n2cnc3c(NCc4ccc(OC5CCOCC5)cc4)ncnc32)[C@H](O)[C@@H]1O [Compound 389] | < 6.30
48 | C[C@H]1O[C@@H](n2cnc3c(SCc4ccc(C(=O)N5CCCC5)cc4)ncnc32)[C@H](O)[C@@H]1O [Compound 390] | < 6.30
49 | C[C@H]1O[C@@H](n2cnc3c(SCc4ccc(S(=O)(=O)N5CCCC5)cc4)ncnc32)[C@H](O)[C@@H]1O [Compound 391] | < 6.30
50 | C[C@H]1O[C@@H](n2cnc3c(SCc4nc5ccccc5o4)ncnc32)[C@H](O)[C@@H]1O [Compound 392] | < 6.30
51 | C[C@H]1O[C@@H](n2cnc3c(SCc4cccnn4)ncnc32)[C@H](O)[C@@H]1O [Compound 393] | < 6.30
52 | C[C@H]1O[C@@H](n2cnc3c(SCc4ncccn4)ncnc32)[C@H](O)[C@@H]1O [Compound 394] | < 6.30
53 | C[C@H]1O[C@@H](n2cnc3c(SCc4nc(-c5ccc(F)cc5)no4)ncnc32)[C@H](O)[C@@H]1O [Compound 395] | < 6.30
54 | Cc1ccc2nc(CSc3ncnc4c3ncn4[C@@H]3O[C@H](C)[C@@H](O)[C@H]3O)cn2c1 [Compound 396] | < 6.30
55 | Cc1noc(CSc2ncnc3c2ncn3[C@@H]2O[C@H](C)[C@@H](O)[C@H]2O)n1 [Compound 397] | < 6.30
56 | Cc1nnc(CSc2ncnc3c2ncn3[C@@H]2O[C@H](C)[C@@H](O)[C@H]2O)o1 [Compound 398] | < 6.30
57 | C[C@H]1O[C@@H](n2cnc3c(COCc4ccccc4)ncnc32)[C@H](O)[C@@H]1O [Compound 399] | < 6.30
58 | C[C@H]1O[C@@H](n2cnc3c(OCCc4ccc(C(F)F)nc4)ncnc32)[C@H](O)[C@@H]1O [Compound 400] | < 6.30
59 | C[C@H]1O[C@@H](n2cnc3c(OCCc4ccc(=O)n(C)c4)ncnc32)[C@H](O)[C@@H]1O [Compound 401] | < 6.30
60 | C[C@H]1O[C@@H](n2cnc3c(OCCc4ccc(C#N)cn4)ncnc32)[C@H](O)[C@@H]1O [Compound 402] | < 6.30
61 | C[C@H]1O[C@@H](n2cnc3c(OCCc4cnc(CF)nc4)ncnc32)[C@H](O)[C@@H]1O [Compound 403] | < 6.30
62 | C[C@H]1O[C@@H](n2cnc3c(OCCc4cnc(C(F)F)nc4)ncnc32)[C@H](O)[C@@H]1O [Compound 404] | < 6.30
63 | O=[N+]([O-])c1ccc(COc2ncnc3c2ncn3[C@H]2C[C@H](O)[C@@H](CO)O2)cc1 [Compound 405] | < 6.30
